Patent US12492173B2, “Herbicidal substituted N-tetrazolyl aryl carboxamides” (Bayer Aktiengesellschaft, priority 2019, dated 2025)

Columns and labels:
Type in all cases: in vivo
Echinochloa crus-galli = test: Pre-emergence herbicidal action, ECHCG; design: key to Herbicidal action against ECHCG: % activity: 100 = plants have died, 0 = like control plants; settings: for pest or weed control at 20 g/ha: Echinochloa crus-galli, 504 h, read-out: Herbicidal action against ECHCG
In short: (§1)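 Greenhouse pre-emergence test: formulated compound (WP or EC) applied in water to the soil covering sown seeds, 600–800 l/ha, 0.2% wetting agent. Scored visually in percent at 3 weeks versus untreated plants.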

Abutilon theophrasti = test: Pre-emergence herbicidal action, ABUTH; design: key to Herbicidal action against ABUTH: % activity: 100 = plants have died, 0 = like control plants
In short: as §1

Amaranthus retroflexus [1] = test: Pre-emergence herbicidal action, AMARE; design: key to Herbicidal action against AMARE: % activity: 100 = plants have died, 0 = like control plants; settings: for Herbicidal action against AMARE: comparative experiment, 20 g of a.i./ha
In short: as §1

Cyperus esculentus [2] = test: Pre-emergence herbicidal action, CYPES; design: key: % activity: 100 = plants have died, 0 = like control plants; settings: comparative experiment, 20 g of a.i./ha
From the text: (§2) 1. Pre-Emergence Herbicidal Action Against Harmful Plants Seeds of monocotyledonous and dicotyledonous weed plants and crop plants are laid out in sandy loam soil in wood-fiber pots and covered with soil. The compounds of the invention, formulated in the form of wettable powders (WP) or as emulsion concentrates (EC), are then applied to the surface of the covering soil in the form of an aqueous suspension or emulsion at a water application rate equating to 600 to 800 l/ha, with addition of 0.2% wetting agent. After the treatment, the pots are placed in a greenhouse and kept under good growth conditions for the trial plants. The damage to the test plants is scored visually after a test period of 3 weeks by comparison with untreated controls (herbicidal activity in percent (%): 100% activity=the plants have died, 0% activity=like control plants). […] The tables below illustrate, in an exemplary manner, the […] herbicidal action of the compounds according to the invention, the herbicidal activity being stated in percent. [table] In the experiments that follow, herbicidal action of numerous inventive compounds and the known compounds that are structurally closest from D1 (WO 2012/028579 A1) and D2 (WO 2018/202535 A1) were compared under the above-specified conditions by the pre-emergence and post-emergence method. The example numbers given in the tables relate to the compounds disclosed in the respective documents. In addition to the compounds disclosed in D1 and D2, the following compounds V-1 to V-14 that are encompassed by D1 or D2 but are not compounds specified therein were used in the comparative experiments: • V-1: 2-(methylsulfanyl)-3-(methylsulfinyl)-N-(1-methyl-1H-tetrazol-5-yl)-4-(trifluoromethyl)benzamide • V-2: 2-(methylsulfanyl)-3-(methylsulfonyl)-N-(1-methyl-1H-tetrazol-5-yl)-4-(trifluoromethyl)benzamide • V-3: 2,3-bis(ethylsulfanyl)-N-(1-methyl-1H-tetrazol-5-yl)-4-(trifluoromethyl)benzamide • V-4: 2-chloro-3-(ethylsulfanyl)-N-(1-methyl-1H-tetrazol-5-yl)-4-(trifluoromethyl)benzamide • V-5: 2-chloro-4-iodo-3-(methylsulfanyl)-N-(1-methyl-1H-tetrazol-5-yl)benzamide • V-6: 2-chloro-4-iodo-3-(methylsulfinyl)-N-(1-methyl-1H-tetrazol-5-yl)benzamide • V-7: 2-chloro-4-iodo-3-(methylsulfonyl)-N-(1-methyl-1H-tetrazol-5-yl)benzamide • V-8: 2-bromo-3-(methylsulfanyl)-N-(1-methyl-1H-tetrazol-5-yl)-4-(trifluoromethyl)benzamide • V-9: 2-bromo-3-(methylsulfinyl)-N-(1-methyl-1H-tetrazol-5-yl)-4-(trifluoromethyl)benzamide • V-10: 2-bromo-3-(methylsulfonyl)-N-(1-methyl-1H-tetrazol-5-yl)-4-(trifluoromethyl)benzamide • V-11: 2-bromo-3-(ethylsulfanyl)-N-(1-methyl-1H-tetrazol-5-yl)-4-(trifluoromethyl)benzamide • V-12: 2-bromo-3-(ethylsulfinyl)-N-(1-methyl-1H-tetrazol-5-yl)-4-(trifluoromethyl)benzamide • V-13: 2-bromo-3-(ethylsulfonyl)-N-(1-methyl-1-1H-tetrazol-5-yl)-4-(trifluoromethyl)benzamide • V-14: 2-cyclopropyl-3-(ethylsulfanyl)-N-(1-methyl-1H-tetrazol-5-yl)-4-(trifluoromethyl)benzamide Herbicidal Pre-Emergence Action: […]

Polygonum convolvulus [3] = test: Pre-emergence herbicidal action, POLCO
In short: as §1

Stellaria media [4] = test: Pre-emergence herbicidal action, STEME; design: key to Herbicidal action against STEME: % activity: 100 = plants have died, 0 = like control plants; settings: for Herbicidal action against STEME: comparative experiment, 20 g of a.i./ha
In short: as §1

Pharbitis purpurea = test: Pre-emergence herbicidal action, PHBPU; settings: dosage 320 g/ha, scored visually after 3 weeks vs untreated controls (100% = plants have died)
From the text: as §2

Hordeum murinum = test: Pre-emergence herbicidal action, HORMU; settings: dosage 320 g/ha, scored visually after 3 weeks vs untreated controls (100% = plants have died)
From the text: as §2

Veronica persica = test: Pre-emergence herbicidal action, VERPE; design: key to Herbicidal action against VERPE: % activity: 100 = plants have died, 0 = like control plants; settings: for Herbicidal action against VERPE: comparative experiment, 20 g of a.i./ha
In short: as §1

Viola tricolor = test: Pre-emergence herbicidal action, VIOTR; design: key to Herbicidal action against VIOTR: % activity: 100 = plants have died, 0 = like control plants
In short: as §1

Setaria viridis = test: Pre-emergence herbicidal action, SETVI; design: key to Herbicidal action against SETVI: % activity: 100 = plants have died, 0 = like control plants; settings: for Herbicidal action against SETVI: comparative experiment, 20 g of a.i./ha
In short: as §1

Matricaria inodora = test: Pre-emergence herbicidal action, MATIN; design: key to Herbicidal action against MATIN: % activity: 100 = plants have died, 0 = like control plants; settings: for Herbicidal action against MATIN: comparative experiment, 20 g of a.i./ha
In short: as §1

Polygonum convolvulus [5] = test: Post-emergence herbicidal action, POLCO; settings: comparative experiment, post-emergence, 5 g of a.i./ha
In short: (§3)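 After sowing into sandy loam, plants grew 2 to 3 weeks under greenhouse conditions until one leaf, then got a spray of compound as aqueous suspension or emulsion. Roughly three weeks on, activity was estimated visually against untreated pots.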

Alopecurus myosuroides [6] = test: Pre-emergence herbicidal action, ALOMY; design: key: % activity: 100 = plants have died, 0 = like control plants; settings: comparative experiment, 20 g of a.i./ha
From the text: as §2

Stellaria media [7] = test: Post-emergence herbicidal action, STEME; design: key: % herbicidal action vs untreated; 100 = plants died, 0 = like control; settings: comparative experiment, post-emergence, 5 g of a.i./ha
In short: as §3

Cyperus esculentus [8] = test: Post-emergence herbicidal action, CYPES; design: key: % herbicidal action vs untreated; 100 = plants died, 0 = like control; settings: comparative experiment, post-emergence, 5 g of a.i./ha
Experimental: (§4) [table] 2. Post-Emergence Herbicidal Action Against Harmful Plants Seeds of monocotyledonous and dicotyledonous weed and crop plants are laid out in sandy loam soil in wood-fiber pots, covered with soil and cultivated in a greenhouse under good growth conditions. 2 to 3 weeks after sowing, the test plants are treated at the one-leaf stage. The compounds of the invention, formulated in the form of wettable powders (WP) or as emulsion concentrates (EC), are then sprayed onto the green parts of the plants in the form of an aqueous suspension or emulsion at a water application rate equating to 600 to 800 l/ha, with addition of 0.2% wetting agent. After the test plants have been left to stand in the greenhouse under optimal growth conditions for about 3 weeks, the action of the preparations is assessed visually in comparison to untreated controls (herbicidal action in percent (%): 100% activity=the plants have died, 0% activity=like control plants). […] The tables below illustrate, in an exemplary manner, the post-emergence herbicidal action of the compounds according to the invention, the herbicidal activity being stated in percent. In the experiments that follow, herbicidal action of numerous inventive compounds and the known compounds that are structurally closest from D1 (WO 2012/028579 A1) and D2 (WO 2018/202535 A1) were compared under the above-specified conditions by the pre-emergence and post-emergence method. The example numbers given in the tables relate to the compounds disclosed in the respective documents. In addition to the compounds disclosed in D1 and D2, the following compounds V-1 to V-14 that are encompassed by D1 or D2 but are not compounds specified therein were used in the comparative experiments: • V-1: 2-(methylsulfanyl)-3-(methylsulfinyl)-N-(1-methyl-1H-tetrazol-5-yl)-4-(trifluoromethyl)benzamide • V-2: 2-(methylsulfanyl)-3-(methylsulfonyl)-N-(1-methyl-1H-tetrazol-5-yl)-4-(trifluoromethyl)benzamide • V-3: 2,3-bis(ethylsulfanyl)-N-(1-methyl-1H-tetrazol-5-yl)-4-(trifluoromethyl)benzamide • V-4: 2-chloro-3-(ethylsulfanyl)-N-(1-methyl-1H-tetrazol-5-yl)-4-(trifluoromethyl)benzamide • V-5: 2-chloro-4-iodo-3-(methylsulfanyl)-N-(1-methyl-1H-tetrazol-5-yl)benzamide • V-6: 2-chloro-4-iodo-3-(methylsulfinyl)-N-(1-methyl-1H-tetrazol-5-yl)benzamide • V-7: 2-chloro-4-iodo-3-(methylsulfonyl)-N-(1-methyl-1H-tetrazol-5-yl)benzamide • V-8: 2-bromo-3-(methylsulfanyl)-N-(1-methyl-1H-tetrazol-5-yl)-4-(trifluoromethyl)benzamide • V-9: 2-bromo-3-(methylsulfinyl)-N-(1-methyl-1H-tetrazol-5-yl)-4-(trifluoromethyl)benzamide • V-10: 2-bromo-3-(methylsulfonyl)-N-(1-methyl-1H-tetrazol-5-yl)-4-(trifluoromethyl)benzamide • V-11: 2-bromo-3-(ethylsulfanyl)-N-(1-methyl-1H-tetrazol-5-yl)-4-(trifluoromethyl)benzamide • V-12: 2-bromo-3-(ethylsulfinyl)-N-(1-methyl-1H-tetrazol-5-yl)-4-(trifluoromethyl)benzamide • V-13: 2-bromo-3-(ethylsulfonyl)-N-(1-methyl-1-1H-tetrazol-5-yl)-4-(trifluoromethyl)benzamide • V-14: 2-cyclopropyl-3-(ethylsulfanyl)-N-(1-methyl-1H-tetrazol-5-yl)-4-(trifluoromethyl)benzamide Herbicidal Pre-Emergence Action: […]

Alopecurus myosuroides [9] = test: Post-emergence herbicidal action, ALOMY; design: key: % herbicidal action vs untreated; 100 = plants died, 0 = like control; settings: comparative experiment, post-emergence, 5 g of a.i./ha
Experimental: as §4

Amaranthus retroflexus [10] = test: Post-emergence herbicidal action, AMARE; design: key: % herbicidal action vs untreated; 100 = plants died, 0 = like control; settings: comparative experiment, post-emergence, 5 g of a.i./ha
In short: as §3

[11] = comparative experiment, 20 g of a.i./ha
[12] = dosage 320 g/ha, scored visually after 3 weeks vs untreated controls (100% = plants have died)

SMILES: CSc1c(C(=O)Nc2nnnn2C)ccc(C(F)(F)F)c1CS(C)(=O)=O [Example 1-163]
- Herbicidal action against ECHCG (Echinochloa crus-galli; [11]): 90
- herbicidal activity ECHCG (Echinochloa crus-galli; [12]): 100%
- herbicidal activity ABUTH (Abutilon theophrasti; [12]): 100%
- herbicidal activity AMARE (Amaranthus retroflexus [1]; [12]): 100%
- Herbicidal action against CYPES (Cyperus esculentus [2]): 70
- Herbicidal action against POLCO (Polygonum convolvulus [3]; [11]): 70
- herbicidal activity POLCO (Polygonum convolvulus [3]; [12]): 100%
- herbicidal activity STEME (Stellaria media [4]; [12]): 100%
- herbicidal activity PHBPU (Pharbitis purpurea): 80%
- herbicidal activity HORMU (Hordeum murinum): 90%
- herbicidal activity VERPE (Veronica persica; [12]): 100%
- herbicidal activity VIOTR (Viola tricolor; [12]): 100%
- herbicidal activity SETVI (Setaria viridis; [12]): 100%
- herbicidal activity MATIN (Matricaria inodora; [12]): 100%
- Herbicidal action against POLCO (Polygonum convolvulus [5]): 70

SMILES: Cn1nnnc1NC(=O)c1ccc(I)c([S+](C)[O-])c1Cl (stereo not drawn) [Example V-6, 2-chloro-4-iodo-3-(methylsulfinyl)-N-(1-methyl-1H-tetrazol-5-yl)benzamide, reference compound]
- Herbicidal action against ABUTH (Abutilon theophrasti; [11]): 40
- Herbicidal action against AMARE (Amaranthus retroflexus [1]): 50
- Herbicidal action against STEME (Stellaria media [4]): 0
- Herbicidal action against ALOMY (Alopecurus myosuroides [6]): 30
- Herbicidal action against SETVI (Setaria viridis): 60
- Herbicidal action against MATIN (Matricaria inodora): 60

SMILES: CSc1c(I)ccc(C(=O)Nc2nnnn2C)c1Cl [Example V-5, 2-chloro-4-iodo-3-(methylsulfanyl)-N-(1-methyl-1H-tetrazol-5-yl)benzamide, reference compound]
- Herbicidal action against STEME (Stellaria media [7]): 10
- pest or weed control at 20 g/ha (Echinochloa crus-galli; [11]): 0%
- Herbicidal action against AMARE (Amaranthus retroflexus [1]): 70
- Herbicidal action against CYPES (Cyperus esculentus [2]): 0
- Herbicidal action against CYPES (Cyperus esculentus [8]): 10
- Herbicidal action against STEME (Stellaria media [4]): 0
- Herbicidal action against VERPE (Veronica persica): 0
- Herbicidal action against ALOMY (Alopecurus myosuroides [9]): 40
- Herbicidal action against AMARE (Amaranthus retroflexus [10]): 70
- Herbicidal action against SETVI (Setaria viridis): 0
- Herbicidal action against MATIN (Matricaria inodora): 20

SMILES: Cn1nnnc1NC(=O)c1ccc(C(F)(F)F)c([S+](C)[O-])c1Br (stereo not drawn) [Example V-9, 2-bromo-3-(methylsulfinyl)-N-(1-methyl-1H-tetrazol-5-yl)-4-(trifluoromethyl)benzamide, reference compound]
- pest or weed control at 20 g/ha (Echinochloa crus-galli; [11]): 60%
- Herbicidal action against STEME (Stellaria media [4]): 60
- Herbicidal action against ALOMY (Alopecurus myosuroides [6]): 20
- Herbicidal action against VIOTR (Viola tricolor; [11]): 70
- Herbicidal action against SETVI (Setaria viridis): 40

SMILES: Cn1nnnc1NC(=O)c1ccc(C(F)(F)F)c(S(C)(=O)=O)c1Br [Example V-10, 2-bromo-3-(methylsulfonyl)-N-(1-methyl-1H-tetrazol-5-yl)-4-(trifluoromethyl)benzamide, reference compound]
- Herbicidal action against VERPE (Veronica persica): 60
- Herbicidal action against ALOMY (Alopecurus myosuroides [6]): 10
